Measurements reported in patent US9980482B2, “Synergistic compositions with plant protection agents” (multiBIND biotec GmbH, priority 2013, dated 2018).

Legend:
[1] = system: Candida parapsilosis and spores of Aspergillus niger; test: summary of tests with Candida parapsilosis and spores of Aspergillus niger; type: cell-based; design: key to synergistic effect in mixtures: + = low but significant; ++ = good; +++ = very good; settings: for concentration without sufficient antimicrobial activity: conventional plant protection agent alone; for synergistic effect in mixtures: plant protection agent in mixtures (M1-M7, Table 2)
Experimental: (§1) A specific in vitro test system was designed with certified tester strains from Candida parapsilosis (DSM 70125) and spores from Aspergillus niger (DSM 1957) to define antimicrobial activities and synergistic effects. In all experiments freshly grown cultures of the listed microorganisms were adjusted to a cell number of about 10^5 in a 200 μl volume of the test solutions. Test solutions are in general: a) sterile water (H2O) as a negative control, b) conventional plant protection agent alone c) specific mixtures of essential oils, detergents, metal ions and organic acids, d) a plant protection composition according to the invention.
(§2) After a residence time of 15 min. (Candida parapsilosis) or 60 min. (Aspergillus niger) at room temperature the 200 μl samples containing the microorganisms and the test solutions were diluted and were plated in dilutions of 0, 10^−1 and 10^−2 with aliquots of 10 μl each onto growth media. After an incubation period of 2-5 days at 30° C. the grown colonies were determined and documented by digital photography.

[2] = system: Candida parapsilosis (DSM 70125); test: in vitro test of antimicrobial activity and synergistic effects on suspension cultures of Candida parapsilosis; type: cell-based; settings: FIG. 4; for antimicrobial activities against Candida parapsilosis: agent alone at three concentrations (0.05%, 0.025%, 0.01%); for synergistic effect against Candida parapsilosis: in combination with mixture M1, all three concentrations (0.05%, 0.025%, 0.01%)
Experimental: as §1, §2

Molecule | concentration without sufficient antimicrobial activity [1] [%] | synergistic effect in mixtures [1] | antimicrobial activities against Candida parapsilosis [2] | synergistic effect against Candida parapsilosis [2]
OC(Cc1ccccc1Cl)(Cn1nc[nH]c1=S)C1(Cl)CC1 (centres unmarked) [F2, Prothioconazole] | 0.05 | + | – | –
Mancozeb [F4] | 0.05 | +++ | do not show sufficient antimicrobial activities | show synergistic effects
CO/C=C(/C(=O)OC)c1ccccc1Oc1cc(Oc2ccccc2C#N)ncn1 [F6, Azoxystrobin] | 0.07 | + | – | –
CCNC(=O)NC(=O)/C(C#N)=N/OC [F3, Curzate] | 0.01 | +++ | do not show sufficient antimicrobial activities | show synergistic effects
N#Cc1c(Cl)c(Cl)c(Cl)c(C#N)c1Cl [F5, Chlorothalonil] | 0.05 | ++ | do not show sufficient antimicrobial activities | show synergistic effects
[Cl-].[Cu+2].[Cu+2].[OH-].[OH-].[OH-] [F7, Copperoxychlorid] | 0.05 | ++ | – | –
CCCOC(=O)NCCCN(C)C [F1, Propamocarb] | 0.05 | + | – | –
